Patent publication US20140288182A1, “USE OF CARBAMIDE PEROXIDE INJECTION IN PREPARATION OF VIRUS INACTIVATION MEDICAMENTS FOR TREATING DISEASES” (Wuxi Zhaozhen Radiation Technology Co., Ltd., priority 2013, published 2014)

Tested on: thoracic aorta blood vessel plaque
Experiment: New-Zealand rabbit model of blood vessel plaque (CTA angiography and MR)
Assay type: in vivo
Method: The New-Zealand rabbit model of blood vessel plaque is a common animal experimental model. […] The blood vessel plaque was taken as the target region and positioned, and a radiotherapy plan was made. 1.5 h after intraperitoneal injection of 5-ALA (80 mg/kg body weight), the substrate was intravenously dripped, and the irradiation to the blood vessel plaque was performed once with 5 Gy. The New-Zealand rabbit was continually fed for 1 week.

NCC(=O)CCC(=O)O [5-ALA]
regression of thoracic aorta blood vessel plaque (CTA angiography and MR detection) (5-ALA 80 mg/kg intraperitoneal 1.5 h before, substrate intravenously dripped, plaque irradiated once with 5 Gy, examined on the seventh day after treatment): completely disappeared | plaque in the blood vessel of a rabbit by CT examination (FIG. 3) (photosensitizer given orally, irradiated with high energy X-ray, CT examination 5 days later): eliminated
